Test results reported in patent US10947207B2, “GP130 modulators” (THE REGENTS OF THE UNIVERSITY OF CALIFORNIA, priority 2016, dated 2021).
Several values for one entry are separate records, joined by “and”; a condition that tells them apart may be missing. Identical values can stand only once. Entries after “also recorded” stand apart in the source; their conditions may differ. Like-named read-outs stand apart in the source and are kept apart here.

Key:
human chondrocytes = details: cited from earlier work
[1] = system: NMDA-treated primary hippocampal neurons; assay: NMDA-triggered LDH release in primary hippocampal neuron culture; details: for effect on NMDA-triggered LDH release (in words): 10 μM, 16 h pretreatment, NMDA 100 μM, 2.5 h, compared with NMDA alone; for effect of SC144 on the protection by compounds 2 or 8 against NMDA-evoked excitotoxicity (LDH): SC144 pretreatment/co-treatment with compound 2 or 8
Source text: In this study, the cytotoxicity of NMDA was quantified by measuring the activity of lactate dehydrogenase (LDH) released from the cultured neurons into the medium and confirmed by living cell density analysis using calcein staining. […] MK-801, a noncompetitive antagonist of NMDA receptor, was used as a control [Wong et al., 1986, Proc. Natl. Acad. Sci. U.S.A., 83(18):7104].
(§1) In the present study, primary cultures of hippocampal neurons from E15-16 mouse embryos (C57BL/6) were used. The culture was made according to a previously described protocol with minor modifications [Bilousova et al. 2006, J. Neurochem. 97(1):44]. Hippocampi were isolated in ice-cold D-Hanks buffer containing (in mM: NaCl 136.7, KCl 5.4, NaHCO3 4.2, KH2PO4 0.4, NaH2PO4 0.6, glucose 5.6, and pH 7.4). In order to achieve a single cell suspension, hippocampal tissues were treated with papain (0.5 μg/mL) and Dnase (0.6 μg/mL) for 20 min at 37° C., followed by mechanical dissociation in complete media (Neurobasal medium supplemented with B27 (Invitrogen), 25 μM glutamate, and 1% penicillin-streptomycin). The cells were plated on poly-DL-ornithine (0.5 mg/mL), and laminin (5 μg/mL) pre-coated 96-well plates (Costar) at density 1×10^5 cells/mL and maintained in a humidified 5% CO2 incubator at 37° C. The proliferations of non-neuronal cells were limited by 48 h treatment with cytosine arabinoside (10 μM) started on first day in vitro (DIV1). All experiments were performed at 9 DIV cells.
Hippocampal neurons isolated from embryos were cultured for 8 days before treatment with chemical modulators (compounds). […] Briefly, the cells were washed three times with prewarmed Locke's buffer containing (in mM: NaCl 154, KCl 5.6, NaHCO3 3.6, CaCl2 2.3, MgCl2 1.2, glucose 5.6, HEPES 5, and pH 7.4) to remove traces of growth medium. […] The incubation was terminated by removal of compound-containing buffer, followed by washing with prewarmed drug-free Locke's buffer containing 1 mM Mg^2+.
Assessment of cell damage was done by measuring the LDH activity in the culture medium. The experiment was performed per the manufacturer's protocol (Promega). Release LDH levels were expressed as a percentage compared with that of the DMSO control group (100%).

[2] = system: NMDA-treated hippocampal neurons; assay: Calcein staining, density of living neurons under NMDA-induced excitotoxicity; type: cell-based, mouse; details: 10 μM pretreatment, NMDA 100 μM, 2.5 h
Source text: Calcein staining was employed to evaluate the density of living neurons. A highly lipophilic non-fluorescent and cell permeable compound, calcein-acetoxymethyl ester (calcein-AM) was used for staining. Calcein-AM can be converted by intracellular esterases into calcein, an anionic fluorescent form, only labeling viable cells, and thus provides both morphological and functional information about undamaged cells.
as §1
Hippocampal neurons isolated from embryos were cultured for 8 days before treatment with chemical modulators (compounds). […]
A highly lipophilic non-fluorescent and cell permeable compound, calcein-acetoxymethyl ester (calcein-AM) was used to determine cell viability. […] Fluorescent images of live cells were collected using Lionheart FX automated digital microscope equipped with 4× objective and GFP filter cube (469/525); data was processed and analyzed using Gen5 software v. […]

[3] = Pharmacokinetic study, brain and plasma levels in mice; type: in vivo, mouse; details: for Cmax: mouse, brain
Method: Since any potential therapeutic for AD needs to cross the blood-brain barrier (BBB), we further evaluated the brain permeability of Gp130 compound 2 in mice. Mice were dosed orally at 10 or 30 mg/kg, or injected subcutaneously (SQ) at 10 mg/kg, and euthanized after 1, 2, 4, 6, and 8 hours post-dose. […] The brain to plasma ratio for compound 2 was ˜4:1 for oral 30 mg/kg; and […] for 10 mg/kg SQ injection. Based on the oral brain levels of compound 2 we will conduct proof-of-concept testing in a mouse model of NMDA-induced toxicity in future studies.
The brain penetrance and plasma levels of compound 2 were assessed in a pharmacokinetic (PK) study comprising oral dosing (30 mg/kg and 10 mg/kg) and subcutaneous (sub-Q, 10 mkd) injection. For each route and dose, 5 adult wildtype mice received either 5 μL of a 50 mg/ml stock in 100% DMSO mixed 50:50 with flavoring to give 10 μL total for 10 mg/kg oral; or 10 μL of a 75 mg/ml stock in 100% DMSO mixed 50:50 with flavoring to give 20 μL final for 30 mg/kg oral; or were injected with 50 μL of a 5 mg/ml stock in 100% DMSO for sub-Q 10 mg/kg, Mice were euthanized by ketamine/xylazine over-anesthesia at 1, 2, 4, 6, and 8 h post-dosing, and blood collected by cardiac puncture. The mice were then perfused with saline and brain tissue dissected and snap frozen on dry ice. Blood was centrifuged at 3000 rpm for 10 min and the plasma supernatant was collected. Both plasma and the right hemi-brain were sent to Integrated Analytical Solutions (IAS, Berkeley, Calif.) with a reference sample of compound for compound level analysis in tissue and plasma. The compound levels were determined using a LC-MS/MS approach.

[4] = system: pTyr-STAT3 in SH-SY5Y cells; assay: pSTAT3 AlphaLISA in SH-SY5Y cells; type: cell-based, human; details: 30 minutes, 1 μM
Method: Accordingly, the human neuroblastoma cell line SH-SY5Y was used, known to express the IL-6 receptor, […] to determine JAK-STAT activation as reflected by increases in pSTAT3. In the studies set forth in FIG. 2, cells were treated for 30 minutes with potential agonists PA1, PA2, and PA3; and then lysates were analyzed using the Sure-Fire Perkin-Elmer AlphaLISA for pTyr-STAT3.

Q: For `Brc1ccc(Nc2nc(-c3ccccc3)cs2)cc1` [compound 1 (PA1)], which Gp130 agonism (human chondrocytes; Shkhyan et al. submitted manuscript) is on record?
A: Its Gp130 agonism is “Gp130 agonist”.

Q: What does the source list for `Brc1ccc(Nc2nc(-c3ccccc3)cs2)cc1` [Compound 1, N-(4-bromophenyl)-4-phenylthiazol-2-amine]?
A: apoptosis of human chondrocytes (human chondrocytes): reduce apoptosis of human chondrocytes; pSTAT3 (human chondrocytes): increase pSTAT3

Q: With `Brc1ccc(Nc2nc(-c3cccnc3)cs2)cc1` [Compound 4, N-(4-bromophenyl)-4-(pyridin-3-yl)thiazol-2-amine] as the compound, how does the “effect on NMDA-triggered LDH release (in words)” value (“effect … (in words)” below) [1] read?
A: The value was “greatest decrease”.

Q: With `C[C@]12N[C@H](Cc3ccccc31)c1ccccc12` [MK801, reference compound] as the compound, how does the “effect … (in words)” value [1] read?
A: The value was “rescued the LDH increase”.

Q: What about the “density of living neurons (calcein staining)” value [2] of the same compound?
A: Its value is “significance”.

Q: Which results are given for `O=C(NNc1nc2cc(F)ccc2n2cccc12)c1cnccn1` [SC144]?
A: effect of SC144 on the protection by compounds 2 or 8 against NMDA-evoked excitotoxicity (LDH) [1]: prevented compound 2 rescue; also recorded: prevented this rescue; effect of SC144 on the protection by compounds 2 or 8 against NMDA-evoked excitotoxicity (LDH) ([1]; listed as SC-144): abated the protection

Q: Which results are given for `Fc1ccc(Nc2nc(-c3ccccc3)cs2)cc1` [Compound 2, N-(4-fluorophenyl)-4-phenylthiazol-2-amine]?
A: effect on NMDA-triggered LDH release (in words) [1]: greatest decrease; effect on NMDA-triggered LDH release (in words) ([1]; listed as compound 2): rescued the LDH increase; density of living neurons (calcein staining) [2]: significance; density of living neurons (calcein staining) ([2]; listed as compound 2): no difference in density of living neurons; oral brain permeability (in words) [3]: good oral brain permeability; oral bioavailability (in words) ([3]; dose of 30 mg/kg): orally bioavailable; Cmax ([3]; po, 10 mg/kg, oral 10 mg/kg, at 1 h, read-out: Cmax for brain): ~18 ng/g; Cmax ([3]; po, 30 mg/kg, oral 30 mg/kg, at 1 h post dose, read-out: Cmax for brain): ~570 nM and 156 ng/g; Cmax ([3]; po, 30 mg/kg, oral 30 mg/kg, read-out: Cmax): 570 nM; Cmax ([3]; subcutaneous, 10 mg/kg, SQ 10 mg/kg, at 2 h, read-out: Cmax for brain): 161 ng/g; pSTAT3 levels over DMSO control [4]: increased pSTAT3

Q: With `Fc1ccc(Nc2nc(-c3ccc(F)cc3)cs2)cc1` [Compound 8, N,4-bis(4-fluorophenyl)thiazol-2-amine] as the compound, how does the “effect … (in words)” value [1] read?
A: Its value is “rescued LDH; also recorded: greatest decrease”.

Q: Which “effect … (in words)” value [1] does the source give for `Fc1ccc(Nc2nc(-c3ccccc3)cs2)c(F)c1` [Compound 5, N-(2,4-difluorophenyl)-4-phenylthiazol-2-amine] here?
A: The value was “greatest decrease”.

Q: With “HN: 24-amino acid bioactive peptide encoded in the mitochondrial genome by the gene MT-RNR2” as the compound, how does the “effect … (in words)” value [1] read?
A: Its value is “non-significance; also recorded: only one of them was active”.

Q: What about the “effect on neurons which were not treated with NMDA” value ([1]; no NMDA) of the same compound?
A: The value was “Neither HN itself nor the compounds had effect”.

Q: With “HNG: potent HN analog, HN with a substitution of serine 14 to glycine (MAPRGFSCLLLLTGEIDLPVKRRA; UniProt Q8IVG9 1-24, looked up, variant S14G)” as the compound, how does the “effect … (in words)” value [1] read?
A: The value was “significance”.
